Test results from PubChem BioAssay AID248 (DTP/NCI, 2004).
Several values for one entry are separate records, joined by “and”; a condition that tells them apart may be missing. Equal entries are not always repeated. Toxic doses and inconclusive results are not listed. Rule as the data show it: active = T/C of 150% or more; inactive = T/C below 125%.

Tested on: L1210 leukemia ip in BDF1 mice, survival T/C
Test: NCI In Vivo Anticancer Drug Screen. Data for tumor model L1210 Leukemia (intraperitoneal) in B6D2F1 (BDF1) mice
Settings: endpoint: mean survival time, higher = longer survival
Summary of the method: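 Survival endpoint. Drug-treated group vs vehicle group, expressed as T divided by C. Tumor passaged by transplantation.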

[1] = dose: 100.0 mg/kg/injection, schedule: Q01DX001 (ip), vehicle: saline
[2] = dose: 200.0 mg/kg/injection, schedule: Q01DX001 (ip), vehicle: saline
[3] = dose: 400.0 mg/kg/injection, schedule: Q01DX001 (ip), vehicle: saline

Measured: T/C

COc1cc2c(cc1OC)C(CC1=C(c3ccccc3)CN3CCc4cc(OC)c(OC)cc4C3C1)NCC2 (stereo not drawn)
inactive: dose: 4.0 mg/kg/injection, schedule: Q04DX003 (ip), vehicle: water 106 % of control and 102 % of control | dose: 8.0 mg/kg/injection, schedule: Q04DX003 (ip), vehicle: water 98 % of control and 101 % of control | dose: 16.0 mg/kg/injection, schedule: Q04DX003 (ip), vehicle: water 106 % of control and 103 % of control | dose: 32.0 mg/kg/injection, schedule: Q04DX003 (ip), vehicle: water 102 % of control and 96 % of control | dose: 64.0 mg/kg/injection, schedule: Q04DX003 (ip), vehicle: water 96 % of control and 95 % of control | dose: 75.0 mg/kg/injection, schedule: Q01DX001 (ip), vehicle: saline 101 % of control and 97 % of control | dose: 150.0 mg/kg/injection, schedule: Q01DX001 (ip), vehicle: saline 94 % of control and 92 % of control

O=C1OC(/C=C/c2ccccc2)=NC/1=C\C=C\c1ccccc1
inactive: dose: 100.0 mg/kg/injection, schedule: Q04DX002 (ip), vehicle: Klucel (hydroxypropylcellulose) (HPC) 107 % of control | dose: 200.0 mg/kg/injection, schedule: Q04DX002 (ip), vehicle: Klucel (hydroxypropylcellulose) (HPC) 104 % of control | dose: 400.0 mg/kg/injection, schedule: Q04DX002 (ip), vehicle: Klucel (hydroxypropylcellulose) (HPC) 104 % of control

O=c1nc2c(ncn2C2OC(CO)C(O)C2O)c(NCCc2ccccc2)[nH]1 (stereo not drawn)
inactive: dose: 50.0 mg/kg/injection, schedule: Q01DX005 (ip), vehicle: water 100 % of control | dose: 100.0 mg/kg/injection, schedule: Q01DX005 (ip), vehicle: water 94 % of control | dose: 200.0 mg/kg/injection, schedule: Q01DX005 (ip), vehicle: water 105 % of control | dose: 400.0 mg/kg/injection, schedule: Q01DX005 (ip), vehicle: water 113 % of control

COC(=O)C1=C2C(C(=O)OC)C(O)=C(C(=O)OC)C2C(C(=O)OC)C1=O (stereo not drawn)
inactive: [1] 97 % of control | dose: 100.0 mg/kg/injection, schedule: Q01DX009 (ip), vehicle: saline 100 % of control | dose: 100.0 mg/kg/injection, schedule: Q04DX003 (ip), vehicle: saline 107 % of control | [2] 105 % of control | dose: 200.0 mg/kg/injection, schedule: Q01DX009 (ip), vehicle: saline 97 % of control | dose: 200.0 mg/kg/injection, schedule: Q04DX003 (ip), vehicle: saline 104 % of control | [3] 103 % of control | dose: 400.0 mg/kg/injection, schedule: Q01DX009 (ip), vehicle: saline 95 % of control | dose: 400.0 mg/kg/injection, schedule: Q04DX003 (ip), vehicle: saline 104 % of control

COC1CCCCC1Br (stereo not drawn)
inactive: dose: 100.0 mg/kg/injection, schedule: Q01DX009 (ip), vehicle: Klucel (hydroxypropylcellulose) (HPC) 104 % of control | dose: 200.0 mg/kg/injection, schedule: Q01DX009 (ip), vehicle: Klucel (hydroxypropylcellulose) (HPC) 98 % of control | dose: 400.0 mg/kg/injection, schedule: Q01DX009 (ip), vehicle: Klucel (hydroxypropylcellulose) (HPC) 98 % of control

CC1=NN(c2ccccc2)C(=O)C1N=Nc1ccc([As](=O)(O)O)c(O)c1 (stereo not drawn)
inactive: [1] 96 % of control | [2] 102 % of control | [3] 100 % of control

O=S(=O)(CCCCl)Cc1ccccc1
inactive: dose: 100.0 mg/kg/injection, schedule: Q01DX009 (ip), vehicle: other 100 % of control | dose: 100.0 mg/kg/injection, schedule: Q04DX003 (ip), vehicle: other 110 % of control | dose: 200.0 mg/kg/injection, schedule: Q01DX009 (ip), vehicle: other 98 % of control | dose: 200.0 mg/kg/injection, schedule: Q04DX003 (ip), vehicle: other 101 % of control | dose: 400.0 mg/kg/injection, schedule: Q01DX009 (ip), vehicle: other 102 % of control | dose: 400.0 mg/kg/injection, schedule: Q04DX003 (ip), vehicle: other 107 % of control

COc1cc(C=Nc2cccc(Cl)c2)ccc1N(CCCl)CCCl
inactive: dose: 12.5 mg/kg/injection, schedule: Q01DX Z (ip), vehicle: carboxymethylcellulose (CMC) 122 % of control | dose: 25.0 mg/kg/injection, schedule: Q01DX Z (ip), vehicle: carboxymethylcellulose (CMC) 120 % of control | dose: 35.0 mg/kg/injection, schedule: Q01DX015 (ip), vehicle: carboxymethylcellulose (CMC) 87 % of control

CC1CCC(O)(C(C)(C(=O)O)c2ccccc2)CC1 (stereo not drawn)
inactive: dose: 55.0 mg/kg/injection, schedule: Q01DX Z (ip), vehicle: methylcellulose (MC) 96 % of control | dose: 83.0 mg/kg/injection, schedule: Q01DX Z (ip), vehicle: methylcellulose (MC) 105 % of control | dose: 125.0 mg/kg/injection, schedule: Q01DX Z (ip), vehicle: methylcellulose (MC) 93 % of control

CCCC(C(O)CC)[N+](=O)[O-] (stereo not drawn)
inactive: dose: 100.0 mg/kg/injection, schedule: Q01DX001 (ip), vehicle: Klucel (hydroxypropylcellulose) (HPC) 95 % of control | dose: 200.0 mg/kg/injection, schedule: Q01DX001 (ip), vehicle: Klucel (hydroxypropylcellulose) (HPC) 97 % of control | dose: 400.0 mg/kg/injection, schedule: Q01DX001 (ip), vehicle: Klucel (hydroxypropylcellulose) (HPC) 101 % of control

CC(C)C(/C=N/N=C(N)N)=N\N=C(N)N
inactive: dose: 15.0 mg/kg/injection, schedule: Q01DX Z (ip), vehicle: methylcellulose (MC) 94 % of control | dose: 30.0 mg/kg/injection, schedule: Q01DX Z (ip), vehicle: methylcellulose (MC) 105 % of control | dose: 60.0 mg/kg/injection, schedule: Q01DX Z (ip), vehicle: methylcellulose (MC) 94 % of control | dose: 120.0 mg/kg/injection, schedule: Q01DX Z (ip), vehicle: methylcellulose (MC) 96 % of control
